Tests used:
BCL6^BTB [1] = molecular target: T1, BCL6^BTB (Homo sapiens, UniProt P41182, C67R/C84N/E99V)
Ly1B50 = assay: Growth inhibition; assay type: cell-based; conditions: Homo sapiens, 48 h, read-out: GI50 BCL6 independent cell Ly1B50
[2] = system: BCL6-dependent and BCL6-independent lymphoma cells; assay: Differential cell killing assays, panel statements; assay type: cell-based, human
SUDHL6 = assay: Growth inhibition; assay type: cell-based, human
OCI-Ly7 = assay: Growth inhibition; assay type: cell-based, human
BCL6^BTB LG = conditions: read-out: KD (MST); microscale thermophoresis; cited from earlier work
MIZ1 = molecular target: T2, MIZ1 (Homo sapiens, UniProt Q13105); assay: Protein-observed NMR binding to MIZ1 BTB; conditions: Figure S8
T2 sequence (Q13105 1-115): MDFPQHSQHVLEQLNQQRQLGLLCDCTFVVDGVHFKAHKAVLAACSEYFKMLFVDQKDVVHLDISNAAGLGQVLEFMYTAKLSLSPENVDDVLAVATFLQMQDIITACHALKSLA

BCL6^BTB [3] = molecular target: T1, BCL6^BTB; conditions: NMR KD
KAISO = KAISO (Homo sapiens, UniProt Q86T24); conditions: Figure S8
LRF = LRF (Homo sapiens, UniProt O95365); conditions: Figure S8
Sequence of LRF (O95365 1-130): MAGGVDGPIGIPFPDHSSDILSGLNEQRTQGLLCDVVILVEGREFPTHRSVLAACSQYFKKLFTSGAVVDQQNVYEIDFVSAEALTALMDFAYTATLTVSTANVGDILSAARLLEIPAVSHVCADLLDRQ

Sequence of KAISO (Q86T24 1-122, species assumed): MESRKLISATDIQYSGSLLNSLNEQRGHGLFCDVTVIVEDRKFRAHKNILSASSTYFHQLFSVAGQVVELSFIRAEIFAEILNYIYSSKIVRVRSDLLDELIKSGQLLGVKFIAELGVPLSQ

`CCN(CC)C(=O)Cn1cc(CN2CCN(C)CC2)c2ccc(NC(=S)NCCc3c[nH]c4ccccc34)cc21` [Compound 15d, 2-(6-(3-(2-(1H-Indol-3-yl)ethyl)thioureido)-3-((4-methylpiperazin-1-yl)methyl)-1H-indol-1-yl)-N,N-diethylacetamide] gave a 6PA (BCL6^BTB [1]) of 390 Hz.

For `CN1CCN(Cc2cn(CC(=O)NCC(=O)O)c3cc(NC(=S)NCCc4c[nH]c5ccccc45)ccc23)CC1` [Compound 15c, (2-(6-(3-(2-(1H-Indol-3-yl)ethyl)thioureido)-3-((4-methylpiperazin-1-yl)methyl)-1H-indol-1-yl)acetyl)glycine], the GI50 (Ly1B50) was > 500 µM and the “effects in the cell killing assays” value [2] was “no effects”.

In the case of `CC(C)NC(=O)Cn1ccc2ccc(NC(=S)NCCc3c[nH]c4ccccc34)cc21` [Compound 7b, 2-(6-(3-(2-(1H-Indol-3-yl)ethyl)thioureido)-1H-indol-1-yl)-N-isopropylacetamide], the “improvement of 6PA value compared to compound 7a” value (BCL6^BTB [1]) is reported as 3.7 fold.

With `COC(=O)Cn1cc(CN2CCN(C)CC2)c2ccc(NC(=S)NCCc3c[nH]c4ccccc34)cc21` [Compound 13, Methyl 2-(6-(3-(2-(1H-indol-3-yl)ethyl)thioureido)-3-((4-methylpiperazin-1-yl)methyl)-1H-indol-1-yl)acetate] the “cellular activity, SUDHL6 cells” value (SUDHL6) was “weak cellular activity”, the GI50 (Ly1B50) was > 500 µM and the 6PA (BCL6^BTB [1]) was 363 Hz.

In the case of `CC1CN(C(=O)Cn2cc(CN3CCN(C)CC3)c3ccc(NC(=S)NCCc4c[nH]c5ccccc45)cc32)CCO1` (stereo not drawn) [Compound 15g, 1-(2-(1H-Indol-3-yl)ethyl)-3-(1-(2-(2-methylmorpholino)-2-oxoethyl)-3-((4-methylpiperazin-1-yl)methyl)-1H-indol-6-yl)thiourea], the “cellular activity, OCI-Ly7 cells” value (OCI-Ly7) is reported as “only showed activity” and the GI50 (Ly1B50) is reported as > 500 µM.

For `CC(C)NC(=O)Cn1cc(CN2CCN(C)CC2)c2ccc(NC(=S)NCCc3c[nH]c4ccccc34)cc21` [Compound 15a, 2-(6-(3-(2-(1H-indol-3-yl)ethyl)thioureido)-3-((4-methylpiperazin-1-yl)methyl)-1H-indol-1-yl)-N-isopropylacetamide], the GI50 (Ly1B50) was > 500 µM and the “effects in the cell killing assays” value [2] was “no effects”.

In the case of `O=C(O)CC(C(=O)O)N1C(=O)/C(=C2/C(=O)Nc3ccc(Br)cc32)SC1=S` (stereo not drawn) [79–6], the Kd (BCL6^BTB LG) is listed as 129 µM.

In the case of `O=C(O)CNC(=O)Cn1ccc2ccc(NC(=S)NCCc3c[nH]c4ccccc34)cc21` [Compound 7i, (2-(6-(3-(2-(1H-Indol-3-yl)ethyl)thioureido)-1H-indol-1-yl)acetyl)glycine], the GI50 (Ly1B50) is reported as > 500 µM and the “effect on all seven lymphoma cell lines” value ([2]; at the concentration of 500 μM) is reported as “no effect”.

With `CN1CCN(Cc2cn(CC(=O)N3CCCCC3)c3cc(NC(=S)NCCc4c[nH]c5ccccc45)ccc23)CC1` [Compound 15e, 1-(2-(1H-Indol-3-yl)ethyl)-3-(3-((4-methylpiperazin-1-yl)methyl)-1-(2-oxo-2-(piperidin-1-yl)ethyl)-1H-indol-6-yl)thiourea] the GI50 (Ly1B50) was > 500 µM, the GI50 ([2]; Homo sapiens, read-out: GI50 for BCL6-dependent lymphoma cells) was 33 to 103 µM and the “effect on all tested BCL6-independent lymphoma cells” value ([2]; at the concentration of 500 μM) was “no effect”.

In the case of `CN1CCN(Cc2cn(CC(=O)N3CCOCC3)c3cc(NC(=S)NCCc4c[nH]c5ccccc45)ccc23)CC1` [Compound 15f, 1-(2-(1H-Indol-3-yl)ethyl)-3-(3-((4-methylpiperazin-1-yl)methyl)-1-(2-morpholino-2-oxoethyl)-1H-indol-6-yl)thiourea], the “cellular activity, OCI-Ly7 cells” value (OCI-Ly7) is reported as “weak potency”, the GI50 (Ly1B50) is reported as > 500 µM and the “activity to other tested BCL6-dependent lymphoma cells” value ([2]; other than OCI-Ly7) is reported as “no obvious activity”. For the same compound, the “binding to MIZ1 BTB domain” value (MIZ1) was “no interactions”, the “improvement of affinity over 15a” value (BCL6^BTB [3]) was 6 fold and the “binding to KAISO BTB domain” value (KAISO) was “no interactions”. The “binding to LRF BTB domain” value (LRF) was “no interactions”.
